Literature values as cited in patent US20250170146A1, “NIRAPARIB AND ABIRATERONE ACETATE PLUS PREDNISONE TO IMPROVE CLINICAL OUTCOMES IN PATIENTS WITH METASTATIC CASTRATION-RESISTANT PROSTATE CANCER AND HRR ALTERATIONS” (JANSSEN PHARMACEUTICA NV, priority 2022, published 2025).
Where two headings read alike, the source gives them in different places.

Columns and labels:
[1] = system: mCRPC; details: TAX-327
[2] = biological target: T1, CYP2C8 (Homo sapiens, UniProt P10632); details: pioglitazone with a single dose of 1,000 mg AA; healthy subjects
T1 construct: host or cells: healthy subjects (in vivo; the subjects' own enzyme)
T1 sequence (P10632 1-490): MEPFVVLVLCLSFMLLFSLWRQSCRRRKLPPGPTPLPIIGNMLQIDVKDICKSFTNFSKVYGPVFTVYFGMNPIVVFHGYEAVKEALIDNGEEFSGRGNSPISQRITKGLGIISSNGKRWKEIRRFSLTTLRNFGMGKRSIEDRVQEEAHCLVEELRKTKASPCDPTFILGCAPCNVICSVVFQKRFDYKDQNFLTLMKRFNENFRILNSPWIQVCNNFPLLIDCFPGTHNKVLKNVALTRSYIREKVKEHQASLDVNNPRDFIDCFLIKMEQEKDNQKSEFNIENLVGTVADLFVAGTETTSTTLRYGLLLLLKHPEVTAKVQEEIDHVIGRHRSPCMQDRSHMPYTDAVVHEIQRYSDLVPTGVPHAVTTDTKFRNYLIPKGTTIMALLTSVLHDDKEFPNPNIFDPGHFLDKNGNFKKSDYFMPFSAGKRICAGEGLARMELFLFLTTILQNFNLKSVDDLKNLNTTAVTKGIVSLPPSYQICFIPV

[3] = system: L2+ mCRPC HRR-positive
[4] = system: post-docetaxel mCRPC; details: Affirm
[5] = system: first line (pre-docetaxel) mCRPC; details: Prevail

CC(=O)O[C@@]12CO[C@@H]1C[C@H](O)[C@@]1(C)C(=O)[C@H](O)C3=C(C)[C@@H](OC(=O)[C@H](O)[C@@H](NC(=O)OC(C)(C)C)c4ccccc4)C[C@@](O)([C@@H](OC(=O)c4ccccc4)[C@H]21)C3(C)C [docetaxel]
OS benefit vs mitoxantrone [1]: 2.4 months | PSA50 response [1]: 45% | overall survival (OS) [1]: 18.9 months | quality of life (QoL) response [1]: 22% | tumor response [1]: 12%

O=C1c2c(O)ccc(O)c2C(=O)c2c(NCCNCCO)ccc(NCCNCCO)c21 [mitoxantrone]
PSA50 response [1]: 32% | overall survival (OS) [1]: 16.5 months | quality of life (QoL) response [1]: 13% | tumor response [1]: 7%

CC(=O)O[C@H]1CC[C@@]2(C)C(=CC[C@@H]3[C@@H]2CC[C@]2(C)C(c4cccnc4)=CC[C@@H]32)C1 [AA, Abiraterone acetate]
increase in AUC of pioglitazone [2]: 46%

Cc1ccc(S(=O)(=O)O)cc1.NC(=O)c1cccc2cn(-c3ccc([C@@H]4CCCNC4)cc3)nc12 [niraparib, 2-[4-[(3S)-piperidin-3-yl]phenyl]-2H-indazole-7-carboxamide]
median OS ([3]; L2+ mCRPC BRCA patients): 13.01 months | median rPFS ([3]; L2+ mCRPC BRCA patients): 8.08 months | median time to PSA progression ([3]; L2+ mCRPC BRCA patients): 5.13 months | median time to symptomatic skeletal event ([3]; L2+ mCRPC BRCA patients): 13.80 months | overall response rate (ORR) ([3]; L2+ mCRPC BRCA patients): 34.2% | ORR ([3]; L2+ mCRPC non-BRCA patients): 10.6% | median OS ([3]; non-BRCA patients): 9.63 months | median rPFS ([3]; non-BRCA patients): 3.71 months | median time to PSA progression ([3]; non-BRCA patients): 3.65 months | median time to symptomatic skeletal event ([3]; non-BRCA patients): 10.35 months

CNC(=O)c1ccc(N2C(=S)N(c3ccc(C#N)c(C(F)(F)F)c3)C(=O)C2(C)C)cc1F [Enzalutamide]
OS [4]: 18.4 months | OS benefit vs placebo [4]: 4.8 months | PSA50 response [4]: 54% | QoL response rate [4]: 43% | TTPSA progression [4]: 8.3 months | rPFS [4]: 8.3 months | 12-month rPFS milestone [5]: 65% | investigator assessed rPFS [5]: 20 months | median OS [5]: 35.3 months | median rPFS [5]: not reached | objective response rate (ORR) [5]: 59% | rPFS benefit by BICR Hazard Ratio [5]: 0.32 | rPFS risk reduction by BICR [5]: 68%
